Target: TRKA (Homo sapiens (Human), UniProt P04629)
Assay: Isolated TRK enzyme assay (HTRF KinEASE-TK), TRKA
Type: biochemical
Conditions: read-out: Trka enzyme (IC50)

Chain of TRKA (P04629 441-796): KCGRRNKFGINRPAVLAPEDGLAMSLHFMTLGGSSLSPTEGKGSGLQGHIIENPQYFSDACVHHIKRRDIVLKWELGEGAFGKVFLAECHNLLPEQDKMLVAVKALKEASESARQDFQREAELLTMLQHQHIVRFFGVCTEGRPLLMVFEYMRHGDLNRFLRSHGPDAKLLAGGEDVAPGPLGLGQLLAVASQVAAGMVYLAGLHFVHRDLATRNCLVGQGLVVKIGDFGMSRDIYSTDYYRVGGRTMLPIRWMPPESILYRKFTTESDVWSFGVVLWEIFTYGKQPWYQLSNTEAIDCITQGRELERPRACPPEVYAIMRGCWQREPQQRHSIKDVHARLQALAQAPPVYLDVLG

COCC(C)(C)n1cc(C(=O)c2cncc(NC(=O)Cn3cc(C(F)(F)F)cn3)c2)c2cnc(N)nc21 [Example 551, N-{5-[2-Amino-7-(2-methoxy-1,1-dimethyl-ethyl)-7H-pyrrolo[2,3-d]pyrimidine-5-carbonyl]-pyridin-3-yl}-2-(4-trifluoromethyl-pyrazol-1-yl)-acetamide]
IC50: 0.00278 µM

CC1(n2cc(C(=O)c3cncc(NC(=O)Cc4ccc(Cl)cc4)c3)c3cncnc32)COC1 [Example 309, 2-(4-chlorophenyl)-N-(5-{[7-(3-methyloxetan-3-yl)-7H-pyrrolo[2,3-d]pyrimidin-5-yl]carbonyl}pyridin-3-yl)acetamide]
IC50: 0.0539 µM

CC(C)n1cc(C(=O)c2cncc(NC(=O)Cc3nnc(O)c4ccccc34)c2)c2cncnc21 [Example 361, 2-(4-Hydroxy-phthalazin-1-yl)-N-[5-(7-isopropyl-7H-pyrrolo[2,3-d]pyrimidine-5-carbonyl)-pyridin-3-yl]-acetamide]
IC50: 7.64 µM

CC(C)n1cc(C(=O)c2cncc(NC(=O)c3nccn3C)c2)c2cncnc21 [Example 468, 1-Methyl-1H-imidazole-2-carboxylic acid [5-(7-isopropyl-7H-pyrrolo[2,3-d]pyrimidine-5-carbonyl)-pyridin-3-yl]-amide]
IC50: 5.1 µM

CC(C)n1cc(C(=O)c2cncc(NC(=O)c3cnn4c3CCC4)c2)c2cncnc21 [Example 471, 5,6-Dihydro-4H-pyrrolo[1,2-b]pyrazole-3-carboxylic acid [5-(7-isopropyl-7H-pyrrolo[2,3-d]pyrimidine-5-carbonyl)-pyridin-3-yl]-amide]
IC50: 0.751 µM

Cc1ccn(CC(=O)Nc2cncc(C(=O)c3cn(C(C)C)c4ncncc34)c2)n1 [Example 113, N-{5-[(7-isopropyl-7H-pyrrolo[2,3-d]pyrimidin-5-yl)carbonyl]pyridin-3-yl}-2-(3-methyl-1H-pyrazol-1-yl)acetamide]
IC50: 0.3 µM

CC(C)n1cc(C(=O)c2cncc(NC(=O)Cn3ncc4ncccc43)c2)c2cncnc21 [Example 86, N-{5-[(7-isopropyl-7H-pyrrolo[2,3-d]pyrimidin-5-yl)carbonyl]pyridin-3-yl}-2-(1H-pyrazolo[4,3-b]pyridin-1-yl)acetamide]
IC50: 0.0955 µM

Cc1nc(C(=O)Nc2cncc(C(=O)c3cn(C(C)C)c4ncncc34)c2)c(C(F)(F)F)o1 [Example 504, 2-Methyl-5-trifluoromethyl-oxazole-4-carboxylic acid [5-(7-isopropyl-7H-pyrrolo[2,3-d]pyrimidine-5-carbonyl)-pyridin-3-yl]-amide]
IC50: 1.02 µM

N#Cc1cccc(CC(=O)Nc2cncc(C(=O)c3cn(C4COC4)c4ncncc34)c2)c1 [Example 221, 2-(3-cyanophenyl)-N-{5-[(7-oxetan-3-yl-7H-pyrrolo[2,3-d]pyrimidin-5-yl)carbonyl]pyridin-3-yl}acetamide]
IC50: 3.1 µM

CC(C)(CO)n1cc(C(=O)c2cncc(NC(=O)Cc3ccc(NS(C)(=O)=O)cc3)c2)c2cnc(N)nc21 [Example 564, N-{5-[2-Amino-7-(2-hydroxy-1,1-dimethyl-ethyl)-7H-pyrrolo[2,3-d]pyrimidine-5-carbonyl]-pyridin-3-yl}-2-(4-methanesulfonylamino-phenyl)-acetamide]
IC50: 0.00157 µM

Cc1cnc2[nH]cc(C(=O)Nc3cncc(C(=O)c4cn(C(C)C)c5ncncc45)c3)c2c1 [Example 412, 5-Methyl-1H-pyrrolo[2,3-b]pyridine-3-carboxylic acid [5-(7-isopropyl-7H-pyrrolo[2,3-d]pyrimidine-5-carbonyl)-pyridin-3-yl]-amide]
IC50: 0.00518 µM

CC(C)(CO)n1cc(C(=O)c2cncc(NC(=O)Cn3cc(C(F)(F)F)ccc3=O)c2)c2cnc(N)nc21 [Example 559, N-{5-[2-Amino-7-(2-hydroxy-1,1-dimethyl-ethyl)-7H-pyrrolo[2,3-d]pyrimidine-5-carbonyl]-pyridin-3-yl}-2-(2-oxo-5-trifluoromethyl-2H-pyridin-1-yl)-acetamide]
IC50: 0.374 µM

CC(CO)(CO)n1cc(C(=O)c2cncc(NC(=O)Cc3ccc4cccnc4c3)c2)c2cncnc21 [Example 233, N-[5-({7-[2-hydroxy-1-(hydroxymethyl)-1-methylethyl]-7H-pyrrolo[2,3-d]pyrimidin-5-yl}carbonyl)pyridin-3-yl]-2-quinolin-7-ylacetamide]
IC50: 0.0965 µM

CC(CO)(CO)n1cc(C(=O)c2cncc(NC(=O)c3cccc(C(F)(F)F)c3)c2)c2cncnc21 [Example 264, N-(5-(7-(1,3-dihydroxy-2-methylpropan-2-yl)-7H-pyrrolo[2,3-d]pyrimidine-5-carbonyl)pyridin-3-yl)-3-(trifluoromethyl)benzamide]
IC50: 0.0848 µM

CC(C)n1cc(C(=O)c2cncc(NC(=O)Cn3ccc4ccccc43)c2)c2cncnc21 [Example 111, 2-(1H-indol-1-yl)-N-{5-[(7-isopropyl-7H-pyrrolo[2,3-d]pyrimidin-5-yl)carbonyl]pyridin-3-yl}acetamide]
IC50: 0.0462 µM

COCC(C)(C)n1cc(C(=O)c2cncc(NC(=O)Cn3ccc(C(F)(F)F)n3)c2)c2cnc(N)nc21 [Example 549, N-{5-[2-Amino-7-(2-methoxy-1,1-dimethyl-ethyl)-7H-pyrrolo[2,3-d]pyrimidine-5-carbonyl]-pyridin-3-yl}-2-(3-trifluoromethyl-pyrazol-1-yl)-acetamide]
IC50: 0.00322 µM

COc1ccc2[nH]cc(CC(=O)Nc3cncc(C(=O)c4cn(C(C)C)c5ncncc45)c3)c2c1 [Example 117, N-{5-[(7-isopropyl-7H-pyrrolo[2,3-d]pyrimidin-5-yl)carbonyl]pyridin-3-yl}-2-(5-methoxy-1H-indol-3-yl)acetamide]
IC50: 0.0684 µM

CC(C)n1cc(C(=O)c2cncc(NC(=O)COc3ccccc3C#N)c2)c2cncnc21 [Example 347, 2-(2-cyanophenoxy)-N-(5-{[7-(propan-2-yl)-7H-pyrrolo[2,3-d]pyrimidin-5-yl]carbonyl}pyridin-3-yl)acetamide]
IC50: 0.155 µM

O=C(Cc1ccc(C(F)(F)F)c(F)c1)Nc1cncc(C(=O)c2cn(C(CO)CO)c3ncncc23)c1 [Example 277, 2-[3-fluoro-4-(trifluoromethyl)phenyl]-N-[5-({7-[2-hydroxy-1-(hydroxymethyl)ethyl]-7H-pyrrolo[2,3-d]pyrimidin-5-yl}carbonyl)pyridin-3-yl]acetamide]
IC50: 0.434 µM

CS(=O)(=O)c1cccc(CC(=O)Nc2cncc(C(=O)c3cn(C45CC(C4)C5)c4nc(N)ncc34)c2)c1 [Example 579, N-[5-(2-Amino-7-bicyclo[1.1.1]pent-1-yl-7H-pyrrolo[2,3-d]pyrimidine-5-carbonyl)-pyridin-3-yl]-2-(3-methanesulfonyl-phenyl)-acetamide]
IC50: 0.00811 µM

Cc1cc(C(=O)Nc2cncc(C(=O)c3cn(C(C)C)c4ncncc34)c2)nn1C [Example 400, 1,5-Dimethyl-1H-pyrazole-3-carboxylic acid [5-(7-isopropyl-7H-pyrrolo[2,3-d]pyrimidine-5-carbonyl)-pyridin-3-yl]-amide]
IC50: 0.593 µM

CC(C)(C)n1cc(C(=O)c2cncc(NC(=O)Cc3nc4ccccc4[nH]3)c2)c2cnc(N)nc21 [Example 528, N-[5-(2-Amino-7-tert-butyl-7H-pyrrolo[2,3-d]pyrimidine-5-carbonyl)-pyridin-3-yl]-2-(1H-benzoimidazol-2-yl)-acetamide]
IC50: 0.00225 µM

CC(C)n1cc(C(=O)c2cncc(NC(=O)Cn3ccc(C4CC4)n3)c2)c2cnc(N)nc21 [Example 253, N-{5-[(2-amino-7-isopropyl-7H-pyrrolo[2,3-d]pyrimidin-5-yl)carbonyl]pyridin-3-yl}-2-(3-cyclopropyl-1H-pyrazol-1-yl)acetamide]
IC50: 0.00392 µM

CC(C)n1cc(C(=O)c2cncc(NC(=O)c3n[nH]c4ccc(F)cc34)c2)c2cncnc21 [Example 512, 5-Fluoro-1H-indazole-3-carboxylic acid [5-(7-isopropyl-7H-pyrrolo[2,3-d]pyrimidine-5-carbonyl)-pyridin-3-yl]-amide]
IC50: 0.0126 µM

CCOc1ccc(CC(=O)Nc2cncc(C(=O)c3cn(C(C)(C)CO)c4nc(N)ncc34)c2)nc1 [Example 561, N-{5-[2-Amino-7-(2-hydroxy-1,1-dimethyl-ethyl)-7H-pyrrolo[2,3-d]pyrimidine-5-carbonyl]-pyridin-3-yl}-2-(5-ethoxy-pyridin-2-yl)-acetamide]
IC50: 0.112 µM

CC(C)n1cc(C(=O)c2cncc(NC(=O)c3ccc4cccnc4n3)c2)c2cncnc21 [Example 467, 1,8-Naphthyridine-2-carboxylic acid[5-(7-isopropyl-7H-pyrrolo[2,3-d]pyrimidine-5-carbonyl)-pyridin-3-yl]-amide]
IC50: 0.538 µM

CC(C)n1cc(C(=O)c2cncc(NC(=O)c3cccc(C(=O)C(F)(F)F)c3)c2)c2cncnc21 [Example 292, N-{5-[(7-isopropyl-7H-pyrrolo[2,3-d]pyrimidin-5-yl)carbonyl]pyridin-3-yl}-3-(trifluoroacetyl)benzamide]
IC50: 0.0377 µM

CC(C)n1cc(C(=O)c2cncc(NC(=O)Cc3n[nH]c4ccccc34)c2)c2cncnc21 [Example 144, 2-(1H-indazol-3-yl)-N-{5-[(7-isopropyl-7H-pyrrolo[2,3-d]pyrimidin-5-yl)carbonyl]pyridin-3-yl}acetamide]
IC50: 0.0715 µM

COc1cc(F)cc2ccn(CC(=O)Nc3cncc(C(=O)c4cn(C(C)C)c5ncncc45)c3)c12 [Example 145, 2-(5-fluoro-7-methoxy-1H-indol-1-yl)-N-{5-[(7-isopropyl-7H-pyrrolo[2,3-d]pyrimidin-5-yl)carbonyl]pyridin-3-yl}acetamide]
IC50: 0.0374 µM

CC(C)n1cc(C(=O)c2cncc(NC(=O)[C@@H](Cc3ccc(C(=O)c4ccccc4)cc3)NC(=O)OC(C)(C)C)c2)c2cncnc21 [Example 284, 4-benzoyl-N-alpha-(tert-butoxycarbonyl)-N-{5-[(7-isopropyl-7H-pyrrolo[2,3-d]pyrimidin-5-yl)carbonyl]pyridin-3-yl}-L-phenylalaninamide]
IC50: 2.02 µM

CC(C)n1cc(C(=O)c2cncc(NC(=O)c3cccnn3)c2)c2cncnc21 [Example 386, Pyridazine-3-carboxylic acid [5-(7-isopropyl-7H-pyrrolo[2,3-d]pyrimidine-5-carbonyl)-pyridin-3-yl]-amide]
IC50: 9.8 µM

O=C(Cc1ccc(Cl)cc1)Nc1cncc(C(=O)c2c[nH]c3ncncc23)c1 [Example 308, 2-(4-Chlorophenyl)-N-[5-(7H-pyrrolo[2,3-d]pyrimidin-5-ylcarbonyl)pyridin-3-yl]acetamide]
IC50: 0.592 µM

Reference: patent US8846698B2, “Pyrrolo[2,3-d]pyrimidine tropomysin-related kinase inhibitors” (Pfizer Limited, priority 2011, dated 2014)
